Laboratory results taken from patent US8323925B2, “Aβ-binding protein and its peptide derivatives and uses thereof” (priority 2005, dated 2012).
No end group written: not given here. His‑tag = His-Tag conjugated at the N-terminus

B1: PK-4: Recombinant 170 amino acid polypeptide (21 kDa), sequence 1171-1314 and 1369-1380 of human pericentriolar material protein-1, PCM-1 (protein)
chain: SGKTEYMAFPKPFESSSSIGAEKPRNKKLPEEEVESSRTPWLYEQEGEVEKPFIKTGFSVSVEKSTSSNRKNQLDTNGRRRQFDEESLESFSSMPDPVDPTTVTKTFKTRKASAQASLASKDKTPKSKSKKRNSTQLKSRVKNITHARRILQQSNRNACNEAPETGSDFSMFEA

Tests used:
primary cortical neurons = test: Toxicity in vitro against primary cortical neurons; assay type: cell-based; details: data not shown
CD-1 mice = test: Toxicity in vivo; parameters: species or system mouse; details: up to 20 mg/kg body weight
[1] = Stability in serum containing medium; assay type: in vitro ADME; details: for stability in serum containing medium: up to 48 hrs
Procedure: (§1) All peptides P4, P5 and P4-5 are stable in serum containing medium for up to 48 hrs and also in rat blood plasma (FIG. 7). P4 peptide was incubated in culture medium containing 10% fetal calf serum for various time periods at 37° C. and the stability of p4 was tested by Western blot analysis using p4-specific antibody. No loss of P4 was detected over a 24 hour period.

[2] = Stability in rat blood plasma; assay type: in vitro ADME
Procedure: as §1

neuroblastoma cells = test: Toxicity in vitro against cultured neuroblastoma cells; assay type: cell-based; details: data not shown
Procedure: Human neuroblastoma cells, SH-SY5Y were treated with 15 μM Aβ in the presense or absence of Aβ binding peptide p4-5 in serum-free medium for 48 hrs and cell death was assessed by Hoechst stain.

AB1-42 [3] = biological target: T1, AB1-42 (Homo sapiens, UniProt P05067); test: Aβ binding of FC5-conjugated peptide
Text: (§2) These fusion proteins can be used not only to specifically deliver ABPs to the brain but also inside brain cells. This is particularly important since intracellular Aβ is believed to play a major role in synaptic dysfunction and neurodegeneration well before the accumulation of insoluble Aβ in senile plaques^6,7. Such pseudo vaccines would be administered, for example, subcutaneously, and further ingredients beyond a pharmacologically acceptable carrier would not be necessary. […] Recombinant Aβ binding peptide P4-5 (rABP, His-tag-[…]) was conjugated to BBB-permeable single-domain antibody FC5 (FIG. 8A). The FC5 conjugated peptide (FC5/ABP) bound AB1-42 equally well as the synthetic (sABP) or non-conjugated peptide (rABP) (FIG. 8B).

[4] = assay type: in vitro ADME
Text: as §2

Aβ40-1 = test: Aβ-binding dot-blot assay, reverse peptide; details: dot-blot (FIG. 1B)
Procedure: (§3) Aβ-binding of recombinant proteins PK-4 and PK-3 with N-terminus His-tag was determined by dot-blot assay using His-Tag antibody (A) or PK-4-specific antibody (B), and by Biacore analysis (C). β-binding PK-4 is a […] amino acid-long polypeptide that corresponds to sequence 1171-1314, and 1369-1380, of the human pericentriolar material protein-1, PCM-1.

Aβ42-1 = test: Aβ-binding dot-blot assay, reverse peptide; details: dot-blot (FIG. 1B)
Procedure: as §3

AB1-42 [5] = biological target: T1, AB1-42; test: Biacore analysis; assay type: binding; details: Biacore (FIG. 1C)
Procedure: as §3

Aβ1-42 = Aβ1-42 (Homo sapiens, UniProt P05067); test: Aβ-binding of recombinant proteins by dot-blot assay
Procedure: as §3

Aβ1-40 = Aβ1-40 (Homo sapiens, UniProt P05067); test: as above; details: PK-4-specific antibody (FIG. 1B)
Procedure: as §3

rat brain PKC = test: PKC inhibitory activity in vitro; assay type: biochemical; details: rat brain PKC (FIG. 5)
Procedure: Various synthetic peptides derived from PK-4 (see FIG. 2) were tested for PKC inhibitory activity in vitro using rat brain PKC.

Sequence of Aβ1-42 (P05067 672-713 limits assumed): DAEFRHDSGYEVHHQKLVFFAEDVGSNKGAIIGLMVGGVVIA
T1 sequence (P05067 672-713 limits assumed): as above
Sequence of Aβ1-40 (P05067 672-711 limits assumed): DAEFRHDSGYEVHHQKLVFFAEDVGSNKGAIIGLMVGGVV

Molecule | toxicity in vitro against primary cortical neurons (primary cortical neurons) | apparent toxicity in vivo (CD-1 mice) | stability in serum containing medium [1] | stability in rat blood plasma [2] | toxicity in vitro against cultured neuroblastoma cells (neuroblastoma cells) | crossing of BBB in vitro [4] | other results
FSSMPDPVDPTTVTKTFKTRKASAQASLASKDKTPKSKSK [Peptide P4] | no toxicity | none of the peptides, p4, p5, or p4-5 showed any apparent toxicity | stable | stable | no toxicity |  | loss of peptide in culture medium containing 10% fetal calf serum ([1]; 37° C., over a 24 hour period, Western blot): No loss
FC5/ABP: Recombinant Aβ binding peptide P4-5 conjugated to BBB-permeable single-domain antibody FC5 ({His‑tag}-MPDPVDPTTVTKTFKTRKASAQASLASKDKTPKSKSKKRNSTQLKSRVKNI; also: conjugated to single-domain antibody FC5) |  |  |  |  |  | crossed the barrier | binding of AB1-42 relative to synthetic or non-conjugated peptide (AB1-42 [3]): equally well
KDKTPKSKSKKRNSTQLKSRVKNITHARRILQQSNRNACN [Peptide P5] |  | none of the peptides, p4, p5, or p4-5 showed any apparent toxicity | stable | stable |  |  | 
His-tag-MPDPVDPTTVTKTFKTRKASAQASLASKDKTPKSKSKKRNSTQLKSRVKNI ({His‑tag}-MPDPVDPTTVTKTFKTRKASAQASLASKDKTPKSKSKKRNSTQLKSRVKNI) [rABP] |  |  |  |  |  | did not cross the BBB | 
KTFKTRKASAQASLASKDKTPKSKSKKRNSTQLKSRVKNI [Peptide P4-5] | no toxicity | none of the peptides, p4, p5, or p4-5 showed any apparent toxicity | stable | stable | no toxicity |  | 
B1 |  |  |  |  |  |  | binding of reverse peptide Aβ40-1 (Aβ40-1): does not bind; binding of reverse peptide Aβ42-1 (Aβ42-1): does not bind; binding of AB1-42 (AB1-42 [5]): High affinity-binding; selective binding of Aβ1-42 (Aβ1-42; His-Tag antibody (FIG. 1A)): selectively binds Aβ1-42; binding affinity for Aβ1-42 (Aβ1-42; PK-4-specific antibody (FIG. 1B)): high affinity (nM range); binding affinity for Aβ1-40 (Aβ1-40): high affinity (nM range); PKC inhibitory activity (rat brain PKC): inhibits
